Key:
[1] = system: mouse model fed with high fat diet; assay: Effect of alleviating fatty liver in mouse model fed with high fat diet; assay type: in vivo; conditions: 50 mg/kg orally five days a week for 12 weeks
Description: The effect of ginsenoside F2 on alleviating fatty liver was confirmed using a mouse model fed with high fat diet. Eight-week-old male mouse (body weight; 25 g to 28 g) were orally fed with high fat diet and ginsenoside F2 (50 mg/kg) five days a week for a period of 12 weeks. […] From the results, it was confirmed that ginsenoside F2 has the effect of inhibiting fatty liver production in mice even when they were fed with high fat diet.

[2] = system: adipogenesis in the liver (SREBP1c, FAS, CB1R, NAPE-PLD); assay: Analysis of liver tissues of high fat diet-fed mice (H&E, Oil-red O staining, triglyceride, protein and gene expression); assay type: in vivo, mouse
Description: Hematoxylin and Eosin (H&E) staining was performed for the observation of the changes in the liver tissues, and the triglycerides in hepatocytes were stained via Oil-red O staining, and the results are shown under ×100 magnification (FIG. 2A). As a result, it was confirmed again that the lipid accumulation in hepatocytes was reduced.

[3] = system: mouse fed with high fat diet; assay: Improvement in insulin sensitivity: blood glucose after glucose and insulin administration; assay type: in vivo; conditions: vs control group (FIG. 3)
Description: An eleven-week-old mouse was administered with glucose and insulin and the blood glucose level was monitored in a time-dependent manner.

[4] = system: inflammatory cytokines (TNF-α, IL-1β, and IL-6); assay: Expression of inflammatory cytokines in mouse fed with high fat diet; assay type: in vivo; conditions: mouse fed with high fat diet and ginsenoside F2 (FIG. 4)
hepatic stellate cells = assay: Expression of endocannabinoid synthase in hepatic stellate cells treated with TNF-α; assay type: cell-based; conditions: hepatic stellate cells after TNF-α; 10 μM, 20 μM, and 30 μM; 24 hours (FIG. 5)
Description: After treating hepatic stellate cells with TNF-α, they were treated with ginsenoside F2 at concentrations of 10 μM, 20 μM, and 30 μM, and cultured for 24 hours. As a result of examining the difference in expression levels in the cultured hepatic stellate cells, it was confirmed that ginsenoside F2 inhibits the expression of DAGLα and DAGLβ, which are enzymes important for the synthesis of 2-AG, a kind of endocannabinoids, and that ginsenoside F2 inhibits the expression of NAPE-PLD and FAAH, which are factors associated with liver damage (FIG. 5).

[5] = system: breast cancer stem cells (CSCs); conditions: inducing apoptosis along with autophagy in breast cancer stem cells; Mai T T et al. 2012; cited from earlier work
glioblastoma = conditions: xenograft model in SD rats; Shin J Y et al. 2012; cited from earlier work
[6] = liver, high fat diet-fed mice (FIGS. 2C and 2D)

For `CC(C)=CCC[C@](C)(O[C@@H]1O[C@H](CO)[C@@H](O)[C@H](O)[C@H]1O)[C@H]1CC[C@]2(C)[C@@H]1[C@H](O)C[C@@H]1[C@@]3(C)CC[C@H](O[C@@H]4O[C@H](CO)[C@@H](O)[C@H](O)[C@H]4O)C(C)(C)[C@@H]3CC[C@]12C` [ginsenoside F2], the size of liver ([1]; vs control group (FIG. 1A)) was “significant decrease”, the weight of liver ([1]; vs control group (FIG. 1B)) was “significant decrease” and the “lipid accumulation in hepatocytes” value ([2]; H&E and Oil-red O staining, ×100 magnification (FIG. 2A)) was “reduced”. The “triglyceride level in the liver” value ([2]; high fat diet-fed mice (FIG. 2B)) was “lowered”, the “expression of CB1R gene” value [2, 6] was “reduced” and the “expression of FAS gene” value [2, 6] was “reduced”. For the same molecule, the “expression of NAPE-PLD gene” value [2, 6] was “reduced”, the “expression of SREBP1c gene” value [2, 6] was “reduced” and the “protein expression of FAS” value [2, 6] was “reduced”. The “protein expression of SREBP1c” value [2, 6] was “reduced”, the “blood glucose level with time” value [3] was “decrease” and the “expression of IL-1β” value [4] was “inhibit”. The “expression of IL-6” value [4] was “inhibit”, the “expression of TNF-α” value [4] was “inhibit” and the “expression of DAGLα” value (hepatic stellate cells) was “inhibits”. For the same molecule, the “expression of DAGLβ” value (hepatic stellate cells) was “inhibits”, the “expression of FAAH” value (hepatic stellate cells) was “inhibits” and the “expression of NAPE-PLD” value (hepatic stellate cells) was “inhibits”. The “anticancer effect in breast cancer” value [5] was “anticancer effect” and the “anticancer effect against glioblastoma” value (glioblastoma) was “anticancer effect”.

Source: US20210008088A1, “COMPOSITION FOR PREVENTING OR TREATING NON-ALCOHOLIC LIVER DISEASE OR INSULIN RESISTANCE COMPRISING GINSENOSIDE F2” (INTELLIGENT SYNTHETIC BIOLOGY CENTER, priority 2015, published 2021)
